Assay results taken from patent publication US20110306762A1, “ACID ADDITION SALT OF UDENAFIL, PREPARATION METHOD THEREOF AND PHARMACEUTICAL COMPOSITION COMPRISING THE SAME” (priority 2009, published 2011).

Tests used:
[1] = Crystallinity test of acid addition salts of Udenafil; type: physicochemical; set-up: key: ◯: Formation of crystal; X: No formation of crystal; conditions: for Crystallinity test 1-2: crystallization: whether crystallization occurs after dissolving the salt in a suitable solvent; for Crystallinity test 1-1: detecting whether the crystal is formed in the reaction solution
Procedure: The acid addition salts of Udenafil obtained in Examples 1 to 6 and Comparative Examples were tested for crystallinity and hygroscopicity as follows.
1) detecting whether the crystal is formed in the reaction solution, and
2) crystallization: detecting whether crystallization occurs after dissolving acid addition salt of Udenafil in a suitable solvent.

[2] = Solubility test in distilled water by HPLC; type: physicochemical
Description: To test the solubility of the acid addition salts of Udenafil in distilled water, the following experiments were preformed.
The analysis conditions for HPLC were as follows:
Detector: ultraviolet ray absorbance measured at wavelength 292 nm
Column: octadecyl silica gel C18 (4.6×150 mm, 5 μm)
Mobile phase: an aqueous solution of potassium dihydrogenphosphate (0.02M):acetonitrile=70:30

[3] = Hygroscopicity test of acid addition salts of Udenafil; type: physicochemical; conditions: exposed for 2 hours, room temperature, relative humidity 43%
[4] = in vivo; cited from earlier work
[5] = molecular target: PDE-5 (Homo sapiens, UniProt O76074); conditions: compared with the conventional compounds; cited from earlier work

Crystallinity test 1-2 [1] | Crystallinity test 1-1 [1] | Molecule | further results
X | X | O=C(O)CC(O)(CC(=O)O)C(=O)O [citric acid] | –
X | X | O=C(O)/C=C\C(=O)O [maleic acid] | –
X | X | O=C(O)/C=C/C(=O)O [fumaric acid] | –
– | – | CCCOc1ccc(S(=O)(=O)NCCC2CCCN2C)cc1-c1nc2c(CCC)nn(C)c2c(=O)[nH]1 (centres unmarked) [Udenafil, 5-[2-propyloxy-5-(1-methyl-2-pyrrolidinyleneamidosulfonyl)phenyl]-1-methyl-propyl-1,6-dihydro-7H-pyrazolo(4,3-d)pyrimidine-7-one] | half-life [4]: 12 h; time to maximum peak plasma concentration [4]: 1 h; solubility in the distilled water [2]: hardly dissolved; detection in the distilled water ([2]; HPLC): not detected; selectivity to PDE-5 [5]: notably higher selectivity
X | X | N[C@@H](CCC(=O)O)C(=O)O [glutamic acid] | –
X | X | O=C(O)CNC(=O)c1ccccc1 [hippuric acid] | –
X | X | N[C@@H](CC(=O)O)C(=O)O [aspartic acid] | –
X | X | O=C(O)CC(=O)O [malonic acid] | –
X | X | O=C(O)CCC(=O)O [succinic acid] | –
X | X | CC(O)C(=O)O (centres unmarked) [lactic acid] | –
X | X | O=C(O)C(O)C(O)C(=O)O (centres unmarked) [tartaric acid] | –
X | X | O=C(O)/C=C\C(=O)O [maleci acid] | –

Molecule | Crystallinity test 1-2 [1] | Crystallinity test 1-1 [1] | further results
Cinnamic Acid Addition Salt of Udenafil [Example 4] | ◯ | ◯ | –
CC1(C)C2CCC1(CS(=O)(=O)O)C(=O)C2.CCCOc1ccc(S(=O)(=O)NCCC2CCCN2C)cc1-c1nc2c(CCC)nn(C)c2c(=O)[nH]1 (centres unmarked) [Example 3, Camphorsulfonic Acid Addition Salt of Udenafil] | ◯ | ◯ | solubility in the distilled water [2]: remarkably excellent solubility; Average of measured peak area ([2]; HPLC, UV 292 nm): 7,142,473; First measured peak area ([2]; HPLC, UV 292 nm): 7,141,140; second measured peak area ([2]; HPLC, UV 292 nm): 7,127,027; third measured peak area ([2]; HPLC, UV 292 nm): 7,158,961; Hygroscopicity (weight change ratio, %) [3]: 0.7%
O=CO [formic acid] | X | X | –
Oxalic Acid Addition Salt of Udenafil [Example 1] | ◯ | ◯ | –
Adipic Acid Addition Salt of Udenafil [Example 5] | ◯ | ◯ | –
O=C(O)CCCC(=O)O [glutaric acid] | X | X | –
Benzenesulfonic Acid Addition Salt of Udenafil [Example 2] | ◯ | ◯ | –
